{
  "source": "ChEMBL document CHEMBL5316267",
  "about": "“Subnanomolar Affinity and Selective Antagonism at α7 Nicotinic Receptor by Combined Modifications of 2-Triethylammonium Ethyl Ether of 4-Stilbenol (MG624)” (J Med Chem, 2023)",
  "key": {"[1]": {"target": "Neuronal acetylcholine receptor; alpha3/beta4 (Homo sapiens, UniProt P30926+P32297)", "sequence (P30926 whole entry)": "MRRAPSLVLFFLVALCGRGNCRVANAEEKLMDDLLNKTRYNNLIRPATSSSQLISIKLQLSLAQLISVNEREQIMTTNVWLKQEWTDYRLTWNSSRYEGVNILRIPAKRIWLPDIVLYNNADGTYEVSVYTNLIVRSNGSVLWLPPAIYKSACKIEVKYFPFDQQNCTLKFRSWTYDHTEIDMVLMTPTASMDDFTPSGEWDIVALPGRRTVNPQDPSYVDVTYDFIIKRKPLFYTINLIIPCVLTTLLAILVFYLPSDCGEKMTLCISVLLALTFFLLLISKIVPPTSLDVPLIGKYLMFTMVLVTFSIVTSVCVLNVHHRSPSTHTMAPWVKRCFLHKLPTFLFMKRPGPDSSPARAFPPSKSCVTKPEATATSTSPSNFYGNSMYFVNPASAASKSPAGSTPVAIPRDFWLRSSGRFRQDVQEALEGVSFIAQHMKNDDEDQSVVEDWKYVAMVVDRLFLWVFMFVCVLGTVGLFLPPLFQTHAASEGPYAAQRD", "sequence (P32297 whole entry)": "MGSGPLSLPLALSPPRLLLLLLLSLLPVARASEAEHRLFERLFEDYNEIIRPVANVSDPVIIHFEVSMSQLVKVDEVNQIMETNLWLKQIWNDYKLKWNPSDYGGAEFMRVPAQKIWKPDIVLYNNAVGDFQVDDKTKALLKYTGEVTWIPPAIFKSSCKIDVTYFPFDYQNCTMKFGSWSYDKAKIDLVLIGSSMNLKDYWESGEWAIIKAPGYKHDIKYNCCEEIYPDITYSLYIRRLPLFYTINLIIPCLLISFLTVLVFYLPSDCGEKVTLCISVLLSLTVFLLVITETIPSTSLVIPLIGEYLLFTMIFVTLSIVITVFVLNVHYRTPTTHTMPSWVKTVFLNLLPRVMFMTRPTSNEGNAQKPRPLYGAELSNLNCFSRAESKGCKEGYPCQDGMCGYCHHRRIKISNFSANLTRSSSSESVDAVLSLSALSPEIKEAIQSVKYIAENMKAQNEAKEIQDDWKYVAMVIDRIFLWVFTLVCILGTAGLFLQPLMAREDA", "test": "Displacement of [3H]-Epibatidine from alpha3beta4 nAChR (unknown origin) expressed in SH-EP1 cell membrane assessed as inhibition constant by beta counter method", "format": "cell membranes"}, "[2]": {"target": "Neuronal acetylcholine receptor subunit alpha-7 (Homo sapiens) (UniProt P36544)", "sequence (P36544 whole entry)": "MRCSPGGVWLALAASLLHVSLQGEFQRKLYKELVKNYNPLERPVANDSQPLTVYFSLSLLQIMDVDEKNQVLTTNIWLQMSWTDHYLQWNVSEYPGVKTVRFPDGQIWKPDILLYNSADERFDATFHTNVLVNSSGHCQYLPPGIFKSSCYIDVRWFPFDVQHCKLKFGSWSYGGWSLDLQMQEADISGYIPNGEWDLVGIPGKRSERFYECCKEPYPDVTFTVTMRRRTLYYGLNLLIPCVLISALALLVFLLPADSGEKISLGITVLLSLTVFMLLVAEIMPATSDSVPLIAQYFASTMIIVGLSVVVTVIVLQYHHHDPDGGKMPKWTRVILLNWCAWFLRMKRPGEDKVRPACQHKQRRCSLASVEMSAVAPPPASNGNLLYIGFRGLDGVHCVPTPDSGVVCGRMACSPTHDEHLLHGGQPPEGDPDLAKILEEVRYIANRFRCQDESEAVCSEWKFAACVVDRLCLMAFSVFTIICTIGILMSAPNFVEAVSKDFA", "test": "Antagonist activity at human alpha7 nAChR expressed in acetylcholine-induced Xenopus laevis oocytes treated for 1 sec followed by acetylcholine stimulation 1 min post-compound treatment at holding potential of -70 mV by two electrode voltage-clamp assay", "format": "cell-based", "conditions": "Oocyte, filed as antagonist, time 61.0 sec"}, "[3]": {"target": "Neuronal acetylcholine receptor; alpha4/beta2 (Homo sapiens, UniProt P17787+P43681)", "sequence (P17787 whole entry)": "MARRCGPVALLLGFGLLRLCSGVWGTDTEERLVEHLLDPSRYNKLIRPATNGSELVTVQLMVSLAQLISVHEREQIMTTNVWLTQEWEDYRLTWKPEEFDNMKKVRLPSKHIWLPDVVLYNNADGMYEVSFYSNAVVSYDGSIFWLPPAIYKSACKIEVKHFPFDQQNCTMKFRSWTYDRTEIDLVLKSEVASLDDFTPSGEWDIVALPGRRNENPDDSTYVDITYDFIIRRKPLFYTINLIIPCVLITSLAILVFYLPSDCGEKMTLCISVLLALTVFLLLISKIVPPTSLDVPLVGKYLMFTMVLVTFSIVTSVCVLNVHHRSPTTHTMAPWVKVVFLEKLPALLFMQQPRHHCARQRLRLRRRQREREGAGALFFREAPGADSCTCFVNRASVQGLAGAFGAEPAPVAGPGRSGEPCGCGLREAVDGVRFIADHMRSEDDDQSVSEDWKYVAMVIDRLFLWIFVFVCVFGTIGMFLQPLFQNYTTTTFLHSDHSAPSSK", "sequence (P43681 whole entry)": "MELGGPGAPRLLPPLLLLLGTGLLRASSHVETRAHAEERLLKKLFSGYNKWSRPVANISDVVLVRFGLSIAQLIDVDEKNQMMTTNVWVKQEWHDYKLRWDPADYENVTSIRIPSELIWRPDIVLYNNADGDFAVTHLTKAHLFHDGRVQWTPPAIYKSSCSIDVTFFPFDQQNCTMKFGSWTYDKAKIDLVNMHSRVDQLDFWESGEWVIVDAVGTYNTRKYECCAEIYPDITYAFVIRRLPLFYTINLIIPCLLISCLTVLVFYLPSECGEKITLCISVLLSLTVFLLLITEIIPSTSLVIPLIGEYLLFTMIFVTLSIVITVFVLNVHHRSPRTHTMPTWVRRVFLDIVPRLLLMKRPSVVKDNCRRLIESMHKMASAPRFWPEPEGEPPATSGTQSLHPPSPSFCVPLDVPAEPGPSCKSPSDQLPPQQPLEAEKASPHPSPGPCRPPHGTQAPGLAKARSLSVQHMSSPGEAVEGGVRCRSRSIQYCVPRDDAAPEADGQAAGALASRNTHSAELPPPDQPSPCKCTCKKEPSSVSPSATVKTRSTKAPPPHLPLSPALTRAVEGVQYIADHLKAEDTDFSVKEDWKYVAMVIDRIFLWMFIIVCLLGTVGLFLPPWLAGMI", "test": "Displacement of [3H]-Epibatidine from alpha4beta2 nAChR (unknown origin) expressed in HEK293 cell membrane assessed as inhibition constant by beta counter method", "format": "cell membranes"}, "[4]": {"target": "Neuronal acetylcholine receptor; alpha9/alpha10 (Homo sapiens) (UniProt Q9UGM1+Q9GZZ6)", "test": "Partial agonist activity at human alpha9alpha10 nAChR expressed in acetylcholine-induced Xenopus laevis oocytes assessed as residual activity treated for 1 sec followed by acetylcholine stimulation for 1 min post-compound treatment at holding potential of -70 mV by two electrode voltage-clamp assay", "format": "cell-based", "conditions": "Oocyte, time 61.0 sec"}},
  "note": "Activity calls are given as the source filed them. No cut-off for these calls is given here.",
  "data": [
    {"smiles": "CC[N+](CC)(CC)CCOc1ccc(-c2cccc3ccccc23)cc1", "values": [
      {"measurement": "Ki", "setting": "[1]", "value": 0.097, "unit": "µM"}
    ]},
    {"smiles": "C[N+]1(C)CC[C@@H](Oc2ccc(-c3ccc4[nH]ccc4c3)cc2)C1", "values": [
      {"measurement": "Activity", "setting": "[2]", "value": "Active"}
    ]},
    {"smiles": "CC[N+](CC)(CC)CCOc1ccc(OCc2ccccc2)cc1", "values": [
      {"measurement": "Ki", "setting": "[3]", "value": 7.5, "unit": "µM"}
    ]},
    {"smiles": "CC[N+](CC)(CC)CCOc1ccc(CCc2ccccc2)cc1", "values": [
      {"measurement": "Activity", "setting": "[4]", "value": "inactive"}
    ]}
  ]
}
